Counter-ions that a name gives are not always drawn. Like-named read-outs stand apart in the source and are kept apart here. Numbered stars: 1 amine (or outer) side, 2 acyl side, 3 side chain; on linkers, the order of the positions; unused ones are H or OH. Bridge positions count the residues as written; N and C are the ends. Square brackets hold non-standard residues; d marks the D form. Peptide text beside a SMILES is read from it. CH2COCH2 = O=C(C[*:1])C[*:2]; CH2 = C([*:1])[*:2]; Mpa = O=C(O)CCS
Legend:
mouse KOR [1] = biological target: T1, mouse KOR (Mus musculus, UniProt P33534); assay: cell-based; assay type: cell-based; parameters: expressed in transfected cells; settings: for activity at KOR in the functional cAMP assay: agonist mode, ligand on its own, up to concentrations of 10 μM; for EC50: HEK293 cells stably expressing mouse KOR, forskolin 10 μM, n.a. = not active, read-out: potency/efficacy cAMP EC50 ± SD; for Emax: read-out: potency/efficacy cAMP Emax ± SD
DRG neurons = assay: single-cell calcium microfluorimetry in DRG neurons; assay type: cell-based, mouse; settings: 0.5 μM pre-applied, U50,488 10 μM
mice [2] = assay: rotarod test; assay type: in vivo, mouse; settings: 10 mg/kg s.c., 24 h before U50,488 5 mg/kg; at 30 min
Experimental: (§1) Breeding, euthanasia, and all procedures of animal handling were performed according to the regulations of animal care and welfare. Experiments were carried out in accordance with the European Communities Council Directive of 24 November 1986 (86/609/EEC). Behavioral experiments were performed in male CD1 mice (8–10 weeks old) purchased from Janvier Labs (Le Genest-Saint-Isle, France). All animal care and experimental procedures were in accordance with the ethical guidelines for the animal welfare standards of the European Communities Council Directive (2010/63/EU) and were approved by the Committee of Animal Care of the Austrian Federal Ministry of Science and Research. Mice were group-housed in a temperature-controlled specific pathogen-free room with a 12 h light/dark cycle and with free access to food and water. […]
The rotarod test was performed using the accelerating rotarod treadmill (Acceler Rota-Rod 7650, Ugo Basile s.r.l., Varese, Italy) for mice (diameter 3.5 cm) as described previously.[53] […] The time spent on the drum was recorded for each mouse before (baseline) and at 30 min after s.c. administration of saline (control) or U50,488 (5 mg/kg). […] The rotarod data are expressed as percentage (%) changes from the rotarod latencies obtained before (baseline, BL) and after drug administration (test, TL) calculated as 100 × (TL/BL).

mice [3] = assay: radiant heat tail-flick assay; assay type: in vivo, mouse; settings: 10 mg/kg s.c., 24 h before U50,488 5 mg/kg
Experimental: as §1, with “Research.” for “Research. Mice were group-housed in a temperature-controlled specific pathogen-free room with a 12 h light/dark cycle and with free access to food and water.”
The radiant heat tail-flick test was performed using an UB 37360 Ugo Basile analgesiometer (Ugo Basile s.r.l., Varese, Italy) as described previously.[52] The reaction time required by the mouse to remove its tail after application of the radiant heat was measured and defined as the tail-flick latency (in seconds). Tail-flick latencies were measured before and after s.c. administration of saline (control) or U50,488 (5 mg/kg) (i.e., 30 and 60 min) (test latency, TL). […] The antinociceptive effect (as the percentage of the maximum possible effect, % MPE) was calculated according to the formula = [(TL – BL)/(cutoff time – BL)] × 100 where TL represents the test latency and BL is the basal latency.

mouse KOR [4] = biological target: T1, mouse KOR; assay: biochemical; assay type: binding; parameters: expressed in transfected cells
mouse KOR [5] = biological target: T1, mouse KOR; assay type: cell-based; parameters: expressed in transfected cells; host or cells: HEK293 (transient co-transfection, 1:10 ratio); settings: 10 μM ligand; compared to dynA1–13-NH2 = 100%
[6] = stability assay in human serum (RP-HPLC); assay type: in vitro ADME; settings: 37 °C
Experimental: The stability of peptide ligands was determined with human serum from male AB plasma (Sigma) centrifuged at 13,300g for 10 min to remove the lipid content. The supernatant was preincubated at 37 °C for 5 min before 10 μL of a peptide stock solution (3 mg/mL in H2O) was added to 300 μL of serum. A reference solution was prepared in phosphate-buffered saline (PBS) buffer. The serum was incubated at 37 °C and analyzed over a time course of 5 h with 40 μL of aliquots removed at time points T = 0, 15, 30, 60, 90, 120, 240, and 300 min. Each aliquot was quenched with 40 μL of 5 M urea and incubated on ice for 10 min. The proteins were then precipitated with the addition of 40 μL of 20% (w/v) trichloroacetic acid and further incubated on ice for 10 min. The samples were centrifuged for 10 min at 15,000g, and the supernatant was analyzed by analytical RP-HPLC using a Phenomenex Jupiter C18 column (5 μm, 300 Å, 150 × 2 mm) using a linear gradient from 0 to 50% solvent B (90% acetonitrile, 10% H2O, and 0.05% trifluoroacetic acid) and a flow rate of 1 mL/min. The percentage of peptide remaining was determined by the integration of the analyte in comparison to T = 0 min. The peptides were analyzed in triplicate, and data were fitted to an exponential decay curve using GraphPad Prism software.

[7] = 1 nM [3H]-diprenorphine, HEK293 cell membranes stably expressing mouse KOR, read-out: affinity Ki ± SD

T1 sequence (P33534 whole entry): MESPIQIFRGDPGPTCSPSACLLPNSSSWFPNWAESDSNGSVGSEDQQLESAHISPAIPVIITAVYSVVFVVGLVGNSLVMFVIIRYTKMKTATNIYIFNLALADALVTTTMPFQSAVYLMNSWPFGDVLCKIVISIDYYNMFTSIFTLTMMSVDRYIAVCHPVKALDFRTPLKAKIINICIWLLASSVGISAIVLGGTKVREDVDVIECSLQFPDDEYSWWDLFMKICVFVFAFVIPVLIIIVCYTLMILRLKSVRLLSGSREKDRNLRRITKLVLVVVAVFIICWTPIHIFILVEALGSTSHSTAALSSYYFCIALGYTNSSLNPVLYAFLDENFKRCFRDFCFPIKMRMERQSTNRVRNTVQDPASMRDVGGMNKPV

For CC(C)C[C@H](NC(=O)[C@H](CCCCN)NC(=O)[C@@H]1CCCN1C(=O)[C@H](CCCNC(=N)N)NC(=O)[C@@H]1CSCSCCC(=O)N[C@@H](Cc2ccc(O)cc2)C(=O)NCC(=O)NCC(=O)N[C@@H](Cc2ccccc2)C(=O)N[C@@H](CC(C)C)C(=O)N[C@@H](CCCNC(=N)N)C(=O)N[C@@H](CCCNC(=N)N)C(=O)N1)C(=O)N[C@@H](CCCCN)C(=O)O [CSD-CH2(1,8)-OH] ([Mpa]YGGFLRRCRPKLK-OH; linker 1-9 via CH2), the “activity at KOR in the functional cAMP assay” value (“activity at KOR” below) (mouse KOR [1]) was “inactive”.
With Oc1ccc2c3c1O[C@H]1c4[nH]c5c(c4C[C@@]4(O)[C@@H](C2)N(CC2CC2)CC[C@]314)C[C@@]1(O)[C@H]2Cc3ccc(O)c4c3[C@@]1(CCN2CC1CC1)[C@H]5O4 [nor-BNI, norbinaltorphimine] the “effect on U50,488-induced calcium signals in DRG neurons” value (DRG neurons) was “inhibited the activity of U50,488”, the “antagonism of U50,488 effect in the rotarod test” value (mice [2]) was “Antagonism” and the “antagonism of U50,488-induced antinociception” value (mice [3]) was “blocked the antinociceptive response of U50,488”.
Compound CC[C@H](C)[C@@H]1NC(=O)[C@H](CCCNC(=N)N)NC(=O)[C@H](CCCNC(=N)N)NC(=O)[C@H](CC(C)C)NC(=O)[C@H](Cc2ccccc2)NC(=O)CNC(=O)CNC(=O)[C@H](Cc2ccc(O)cc2)NC(=O)CCSCSC[C@@H](C(=O)N[C@@H](CCCCN)C(=O)N[C@@H](CC(C)C)C(=O)N[C@@H](CCCCN)C(N)=O)NC(=O)[C@H](CCCNC(=N)N)NC1=O [CSD-CH2(1,10)-NH2] ([Mpa]YGGFLRRIRCKLK-NH2; linker 1-11 via CH2) has an EC50 (mouse KOR [1]) of 540 nM, an Emax (mouse KOR [1]) of 49 ± 15% and a Ki (mouse KOR [4]) of 6 nM. For the same compound, the Ki (mouse KOR [4]; [7]) was 5.6 nM, the “improvement of KOR affinity by C-terminal amidation” value (mouse KOR [4]; versus counterpart with C-terminal carboxylic acid) was about 6 fold and the “β-arrestin-2 recruitment efficiency (ligand induced BRET)” value (“β-arrestin-2 recruitment efficiency” for short) (mouse KOR [5]) was 38%.
In the case of CC[C@H](C)[C@@H]1NC(=O)[C@H](CCCNC(=N)N)NC(=O)[C@H](CCCNC(=N)N)NC(=O)[C@H](CC(C)C)NC(=O)[C@H](Cc2ccccc2)NC(=O)CNC(=O)CNC(=O)[C@H](Cc2ccc(O)cc2)NC(=O)CCSCSC[C@@H](C(=O)N[C@@H](CCCCN)C(=O)N[C@@H](CC(C)C)C(=O)N[C@@H](CCCCN)C(=O)O)NC(=O)[C@H](CCCNC(=N)N)NC1=O [CSD-CH2(1,10)-OH] ([Mpa]YGGFLRRIRCKLK-OH; linker 1-11 via CH2), the “activity at KOR” value (mouse KOR [1]) is reported as “inactive”, the Ki (mouse KOR [4]; [7]) is reported as 31 nM and the “β-arrestin-2 recruitment efficiency” value (mouse KOR [5]) is reported as “less than 25%”.
In the case of CC(C)C[C@H](NC(=O)[C@H](CCCCN)NC(=O)[C@@H]1CCCN1C(=O)[C@H](CCCNC(=N)N)NC(=O)[C@@H]1CSCC(=O)CSCCC(=O)N[C@@H](Cc2ccc(O)cc2)C(=O)NCC(=O)NCC(=O)N[C@@H](Cc2ccccc2)C(=O)N[C@@H](CC(C)C)C(=O)N[C@@H](CCCNC(=N)N)C(=O)N[C@@H](CCCNC(=N)N)C(=O)N1)C(=O)N[C@@H](CCCCN)C(N)=O [CSD-ace(1,8)-NH2] ([Mpa]YGGFLRRCRPKLK-NH2; linker 1-9 via CH2COCH2), the Emax (mouse KOR [1]) is reported as 73 ± 14%.
For CC(C)C[C@H](NC(=O)[C@H](CCCCN)NC(=O)[C@@H]1CCCN1C(=O)[C@H](CCCNC(=N)N)NC(=O)[C@@H]1CSCSCCC(=O)N[C@@H](Cc2ccc(O)cc2)C(=O)NCC(=O)NCC(=O)N[C@@H](Cc2ccccc2)C(=O)N[C@@H](CC(C)C)C(=O)N[C@@H](CCCNC(=N)N)C(=O)N[C@@H](CCCNC(=N)N)C(=O)N1)C(=O)N[C@@H](CCCCN)C(N)=O [CSD-CH2(1,8)-NH2] ([Mpa]YGGFLRRCRPKLK-NH2; linker 1-9 via CH2), the “activity at KOR” value (mouse KOR [1]) was “inactive” and the “t1/2 in human serum” value [6] was 95 min.
With CC[C@H](C)[C@H](NC(=O)[C@H](CCCNC(=N)N)NC(=O)[C@H](CCCNC(=N)N)NC(=O)[C@H](CC(C)C)NC(=O)[C@H](Cc1ccccc1)NC(=O)CNC(=O)CNC(=O)[C@@H](N)Cc1ccc(O)cc1)C(=O)N[C@@H](CCCNC(=N)N)C(=O)N1CCC[C@H]1C(=O)N[C@@H](CCCCN)C(=O)N[C@@H](CC(C)C)C(=O)N[C@@H](CCCCN)C(N)=O [dynA1–13-NH2, Dynorphin (dyn) A1–13 amide trifluoroacetate salt, reference compound] the EC50 (mouse KOR [1]) was 9.1 nM, the Emax (mouse KOR [1]) was 100% and the “t1/2 in human serum” value [6] was 4 min. For the same compound, the “β-arrestin-2 recruitment efficiency” value (mouse KOR [5]) was 100%.
Compound CC(C)C[C@H](NC(=O)[C@H](CCCCN)NC(=O)[C@@H]1CCCN1C(=O)[C@H](CCCNC(=N)N)NC(=O)[C@@H]1CSCC(=O)CSCCC(=O)N[C@@H](Cc2ccc(O)cc2)C(=O)NCC(=O)NCC(=O)N[C@@H](Cc2ccccc2)C(=O)N[C@@H](CC(C)C)C(=O)N[C@@H](CCCNC(=N)N)C(=O)N[C@@H](CCCNC(=N)N)C(=O)N1)C(=O)N[C@@H](CCCCN)C(=O)O [CSD-ace(1,8)-OH] ([Mpa]YGGFLRRCRPKLK-OH; linker 1-9 via CH2COCH2) has an Emax (mouse KOR [1]) of 57 ± 11%.

Source: paper PMC10510397, “Development of a Selective Peptide κ-Opioid Receptor Antagonist by Late-Stage Functionalization with Cysteine Staples” (Journal of Medicinal Chemistry, 2023)
